Test results published in US9670194B2 (Calitor Sciences, LLC, priority 2013, dated 2017).
Read-outs that look alike come from different tables or passages of the source.

Tests used:
[1] = Pharmacokinetics after intravenous and oral administration in rats; type: in vivo, rat; settings: for CL/F / AUC(0-t) / half-life / Vd / clearance (CL): iv dosing; for bioavailability / AUC(0-t) / half-life / Vd: rat, plasma; for bioavailability: oral dose generally 5 or 10 mg/kg; for Vd: read-out: Vss
[2] = Compound stability in human liver microsomes; type: in vitro ADME; settings: for half-life at 5 μM: human liver microsomes 0.5 mg protein/mL, compound 5 μM, NADPH 1.0 mM, 37° C.; for CLint scaled at 5 μM: human liver microsomes, in vivo CLint extrapolated
[3] = Compound stability in rat liver microsomes; type: in vitro ADME; settings: pH 7.4; for half-life at 5 μM: rat liver microsomes 0.5 mg protein/mL, compound 5 μM, NADPH 1.0 mM, 37° C.; for CLint scaled at 5 μM: rat liver microsomes, in vivo CLint extrapolated

CL/F ([1]; dose 1 mg/kg) [mL/min/kg]	bioavailability ([1]; iv dose 1 mg/kg) [%]	AUC(0-t) ([1]; dose 1 mg/kg) [ng·h/mL]	half-life ([1]; dose 1 mg/kg) [min]	Vd ([1]; dose 1 mg/kg) [L/kg]	half-life at 5 μM [2] [min]	CLint scaled at 5 μM [2] [mL/min/kg]	half-life at 5 μM [3] [min]	CLint scaled at 5 μM [3] [mL/min/kg]	clearance (CL) ([1]; dose 1 mg/kg) [mL/min/kg]	clearance (CL) ([1]; dose 0.48 mg/kg) [mL/min/kg]	bioavailability ([1]; iv dose 0.48 mg/kg) [%]	AUC(0-t) ([1]; dose 0.48 mg/kg) [ng·h/mL]	half-life ([1]; dose 0.48 mg/kg) [min]	Vd ([1]; dose 0.48 mg/kg) [L/kg]	clearance (CL) ([1]; dose 0.5 mg/kg) [mL/min/kg]	bioavailability ([1]; iv dose 0.5 mg/kg) [%]	AUC(0-t) ([1]; dose 0.5 mg/kg) [ng·h/mL]	half-life ([1]; dose 0.5 mg/kg) [min]	Vd ([1]; dose 0.5 mg/kg) [L/kg]	Structure (SMILES)
40.3	40.5	393	158	6.07	19.6	126	20	124	–	–	–	–	–	–	–	–	–	–	–	CC[C@H](Nc1ncnc(N)c1-c1noc(C)n1)c1nc2cccc(C)c2c(=O)n1C1CC1
118	8.88	143	63	7.21	11	227	2.69	923	–	–	–	–	–	–	–	–	–	–	–	CC[C@H](Nc1ncnc(N)c1-c1noc(C)n1)c1nc2ccccc2c(=O)n1-c1ccccc1F
–	30.4	276	91.2	11.9	5.52	315	5.98	416	59.5	–	–	–	–	–	–	–	–	–	–	CC[C@H](Nc1ncnc(N)c1C1=N[C@@H](C)CO1)c1nc2cccc(Cl)c2c(=O)n1C1CC1 [Ex. 5, 2-((S)-1-((6-amino-5-((S)-4-methyl-4,5-dihydrooxazol-2-yl)pyrimidin-4-yl)amino)propyl)-5-chloro-3-cyclopropylquinazolin-4(3H)-one]
–	158	608	78	2.12	160	10.9	56.8	43.8	27.3	–	–	–	–	–	–	–	–	–	–	CC[C@H](Nc1ncnc(N)c1-c1ncnn1C)c1nc2cccc(Cl)c2c(=O)n1C1CC1 [Ex. 9, 2-((1S)-1-((6-amino-5-(1-methyl-1H-1,2,4-triazol-5-yl)pyrimidin-4-yl)amino)-propyl)-5-chloro-3-cyclopropylquinazolin-4(3H)-one]
–	36.4	223	69.6	7.41	12.6	138	4.84	513	74.2	–	–	–	–	–	–	–	–	–	–	CC[C@H](Nc1ncnc(N)c1-c1noc(C)n1)c1nc2cccc(C)c2c(=O)n1-c1ccccc1C [Ex. 15, (S)-2-(1-((6-amino-5-(5-methyl-1,2,4-oxadiazol-3-yl)pyrimidin-4-yl)amino)-propyl)-5-methyl-3-(o-tolyl)quinazolin-4(3H)-one]
–	60.6	307	53.4	2.94	16.5	105	9.24	269	54.2	–	–	–	–	–	–	–	–	–	–	CC[C@H](Nc1ncnc(N)c1-c1ncn(C)n1)c1nc2cccc(C)c2c(=O)n1C1CC1 [Ex. 18, (S)-2-(1-((6-amino-5-(1-methyl-1H-1,2,4-triazol-3-yl)pyrimidin-4-yl)amino)propyl)-3-cyclopropyl-5-methylquinazolin-4(3H)-one]
–	4.56	247	122	13.2	1.92	1290	1.92	1300	130	–	–	–	–	–	–	–	–	–	–	CC[C@H](Nc1ncnc(N)c1-c1nc(C)co1)c1nc2cccc(C)c2c(=O)n1-c1ccccc1C [Ex. 29, (S)-2-(1-((6-amino-5-(4-methyloxazol-2-yl)pyrimidin-4-yl)amino)propyl)-5-methyl-3-(o-tolyl)quinazolin-4(3H)-one]
–	–	–	–	–	37.9	45.9	8.87	280	–	–	–	–	–	–	53	41.8	157	67.8	3.46	CC[C@H](Nc1ncnc(N)c1-c1nnc(C)o1)c1nc2cccc(Cl)c2c(=O)n1-c1ccccc1C [Ex. 35, (S)-2-(1-((6-amino-5-(5-methyl-1,3,4-oxadiazol-2-yl)pyrimidin-4-yl)-amino)propyl)-5-chloro-3-(o-tolyl)quinazolin-4(3H)-one]
–	70.2	278	58.2	4.61	10.7	162	9	276	61.8	–	–	–	–	–	–	–	–	–	–	CC[C@H](Nc1ncnc(N)c1-c1ncn(C)n1)c1nc2cccc(Cl)c2c(=O)n1-c1ccccc1F [Ex. 45, (S)-2-(1-((6-amino-5-(1-methyl-1H-1,2,4-triazol-3-yl)pyrimidin-4-yl)amino)-propyl)-5-chloro-3-(2-fluorophenyl)quinazolin-4(3H)-one]

Continued, compound first:

Structure (SMILES)	CL/F ([1]; dose 1 mg/kg) [mL/min/kg]	bioavailability ([1]; iv dose 1 mg/kg) [%]	AUC(0-t) ([1]; dose 1 mg/kg) [ng·h/mL]	half-life ([1]; dose 1 mg/kg) [min]	Vd ([1]; dose 1 mg/kg) [L/kg]	half-life at 5 μM [2] [min]	CLint scaled at 5 μM [2] [mL/min/kg]	half-life at 5 μM [3] [min]	CLint scaled at 5 μM [3] [mL/min/kg]	clearance (CL) ([1]; dose 1 mg/kg) [mL/min/kg]	clearance (CL) ([1]; dose 0.48 mg/kg) [mL/min/kg]	bioavailability ([1]; iv dose 0.48 mg/kg) [%]	AUC(0-t) ([1]; dose 0.48 mg/kg) [ng·h/mL]	half-life ([1]; dose 0.48 mg/kg) [min]	Vd ([1]; dose 0.48 mg/kg) [L/kg]	clearance (CL) ([1]; dose 0.5 mg/kg) [mL/min/kg]	bioavailability ([1]; iv dose 0.5 mg/kg) [%]	AUC(0-t) ([1]; dose 0.5 mg/kg) [ng·h/mL]	half-life ([1]; dose 0.5 mg/kg) [min]	Vd ([1]; dose 0.5 mg/kg) [L/kg]
CC[C@H](Nc1ncnc(N)c1-c1noc(C)n1)c1nc2cccc(Cl)c2c(=O)n1-c1ccccc1 [Ex. 13, (S)-2-(1-((6-amino-5-(5-methyl-1,2,4-oxadiazol-3-yl)pyrimidin-4-yl)amino)-propyl)-5-chloro-3-phenylquinazolin-4(3H)-one]	–	11.4	232	68.4	6.92	44.7	38.9	6.55	379	72.5	–	–	–	–	–	–	–	–	–	–
CC[C@H](Nc1ncnc(N)c1-c1noc(C)n1)c1nc2cccc(F)c2c(=O)n1C1CC1 [Ex. 16, (S)-2-(1-((6-amino-5-(5-methyl-1,2,4-oxadiazol-3-yl)pyrimidin-4-yl)amino)-propyl)-3-cyclopropyl-5-fluoroquinazolin-4(3H)-one]	–	18.3	249	45.6	4.3	22.9	108	19.7	126	68.7	–	–	–	–	–	–	–	–	–	–
CC[C@H](Nc1ncnc(N)c1-c1nnc(C)o1)c1nc2ccccc2c(=O)n1-c1ccccc1F [Ex. 24, (S)-2-(1-((6-amino-5-(5-methyl-1,3,4-oxadiazol-2-yl)pyrimidin-4-yl)amino)-propyl)-3-(2-fluorophenyl)quinazolin-4(3H)-one]	–	–	–	–	–	17.1	146	5.42	458	–	70.5	69.1	121	30.6	2.31	–	–	–	–	–
CC[C@H](Nc1ncnc(N)c1-c1ncc(C)o1)c1nc2cccc(C)c2c(=O)n1-c1ccccc1C [Ex. 28, (S)-2-(1-((6-amino-5-(5-methyloxazol-2-yl)pyrimidin-4-yl)amino)propyl)-5-methyl-3-(o-tolyl)quinazolin-4(3H)-one]	–	7.67	265	265	8.92	8.69	286	5.12	485	61.2	–	–	–	–	–	–	–	–	–	–
CC[C@H](Nc1ncnc(N)c1-c1ncn(C)n1)c1nc2cccc(C)c2c(=O)n1-c1ccccc1C [Ex. 30, (S)-2-(1-((6-amino-5-(1-methyl-1H-1,2,4-triazol-3-yl)pyrimidin-4-yl)amino)-propyl)-5-methyl-3-(o-tolyl)quinazolin-4(3H)-one]	–	22.4	238	51.6	3.84	17.8	140	8.46	294	70.5	–	–	–	–	–	–	–	–	–	–
CC[C@H](Nc1ncnc(N)c1-c1nnn(C)n1)c1nc2cccc(Cl)c2c(=O)n1-c1cccc(F)c1 [Ex. 36, (S)-2-(1-((6-amino-5-(2-methyl-2H-tetrazol-5-yl)pyrimidin-4-yl)amino)propyl)-5-chloro-3-(3-fluorophenyl)quinazolin-4(3H)-one]	–	–	–	–	–	14.3	122	14.6	170	–	–	–	–	–	–	–	–	–	–	–
C[C@H](Nc1ncnc(N)c1-c1nnn(C)n1)c1nc2cccc(Cl)c2c(=O)n1C1CC1 [Ex. 42, (S)-2-(1-((6-amino-5-(2-methyl-2H-tetrazol-5-yl)pyrimidin-4-yl)amino)ethyl)-5-chloro-3-cyclopropylquinazolin-4(3H)-one]	–	33	203	54.6	5.15	42.4	41	25.3	98.2	82	–	–	–	–	–	–	–	–	–	–
CC[C@H](Nc1ncnc(N)c1-c1nnn(C)n1)c1nc2cccc(F)c2c(=O)n1-c1ccccc1 [Ex. 43, (S)-2-(1-((6-amino-5-(2-methyl-2H-tetrazol-5-yl)pyrimidin-4-yl)amino)-propyl)-5-fluoro-3-phenylquinazolin-4(3H)-one]	–	90	452	91.2	3.41	7.12	244	7.15	347	36.8	–	–	–	–	–	–	–	–	–	–
CC[C@H](Nc1ncnc(N)c1-c1nnn(C)n1)c1nc2cccc(Cl)c2c(=O)n1C1CC1 [Ex. 54, (S)-2-(1-((6-amino-5-(2-methyl-2H-tetrazol-5-yl)pyrimidin-4-yl)amino)-propyl)-5-chloro-3-cyclopropylquinazolin-4(3H)-one]	–	–	–	–	–	42.8	40.6	99.1	25.1	–	–	–	–	–	–	–	–	–	–	–
